For assay [1], the system named is Cabbage Looper (Trichoplusia ni) ("CL"), second instar larvae. As to the kind of experiment: Bioassay on cabbage looper (CL), 128-well diet tray assay. Type of assay: in vivo. Particulars: Trichoplusia ni, read-out: CL (Biological Results, rating). The gist of the method: (§1)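 Sealed trays, 25° C., 14:10 light:dark, 5–7 d. Per-well % mortality recorded, mean of eight wells reported.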

The subject of assay [2] is Beet Armyworm (Spodoptera exigua) ("BAW"), second instar larvae. As to the kind of experiment: Bioassay on beet armyworm (BAW), 128-well diet tray assay. Type of assay: in vivo. Particulars: Spodoptera exigua, read-out: BAW (Biological Results, rating). The gist of the method:
as §1

Each structure is given as a SMILES string.

`Cc1ccc(OCC(F)(F)F)c(N2C(=O)CS/C2=N\C(=O)Nc2ccc(-c3ncn(-c4cccc(OC(F)(F)F)c4)n3)cc2F)c1` [Compound J121, (Z)-1-(2-Fluoro-4-(1-(3-(trifluoromethoxy)phenyl)-1H-1,2,4-triazol-3-yl)phenyl)-3-(3-(5-methyl-2-(2,2,2-trifluoroethoxy)phenyl)-4-oxothiazolidin-2-ylidene)urea]: the values for the pest or weed control at 50 µg/cm2 in assay [1] and in assay [2] were 50 to 100% and 0 to 50%, respectively.

Regarding `CCOC(C)c1ccc(C)cc1N1C(=O)CS/C1=N\C(=O)Nc1ccc(-c2ncn(-c3ccc(OC(F)(F)F)cc3)n2)cc1F` (stereo not shown) [Compound J124, (Z)-1-(3-(2-(1-Ethoxyethyl)-5-methylphenyl)-4-oxothiazolidin-2-ylidene)-3-(2-fluoro-4-(1-(4-(trifluoromethoxy)phenyl)-1H-1,2,4-triazol-3-yl)phenyl)urea], the pest or weed control at 50 µg/cm2 in assay [1] and in assay [2] was 50 to 100% throughout.

As for `CCCOc1ccc(C)cc1N1C(=O)CS/C1=N\C(=O)Nc1ccc(-c2ncn(-c3ccc(OC(F)(F)F)cc3)n2)cc1F` [Compound J125, (Z)-1-(2-Fluoro-4-(1-(4-(trifluoromethoxy)phenyl)-1H-1,2,4-triazol-3-yl)phenyl)-3-(3-(5-methyl-2-propoxyphenyl)-4-oxothiazolidin-2-ylidene)urea], the pest or weed control at 50 µg/cm2 in assay [1] and in assay [2] was 50 to 100% in each case.

Consider `CCCNc1ccc(C(C)C)c(N2C(=O)CS/C2=N\C(=O)Nc2ccc(-c3ncn(-c4ccc(OC(F)(F)F)cc4)n3)cc2C)c1` [Compound J128, (Z)-1-(3-(2-Isopropyl-5-(propylamino)phenyl)-4-oxothiazolidin-2-ylidene)-3-(2-methyl-4-(1-(4-(trifluoromethoxy)phenyl)-1H-1,2,4-triazol-3-yl)phenyl)urea], for which the pest or weed control at 50 µg/cm2 in assay [1] and in assay [2] was 50 to 100% in each case.

Take `CCN(CC)c1ccc(C(C)C)c(N2C(=O)CS/C2=N\C(=O)Nc2ccc(-c3ncn(-c4ccc(OC(F)(F)F)cc4)n3)cc2C)c1` [Compound J129, (Z)-1-(3-(5-(Diethylamino)-2-isopropylphenyl)-4-oxothiazolidin-2-ylidene)-3-(2-methyl-4-(1-(4-(trifluoromethoxy)phenyl)-1H-1,2,4-triazol-3-yl)phenyl)urea]: the pest or weed control at 50 µg/cm2 in assay [1] and in assay [2] was 50 to 100% each time.

`CCCN(CCC)c1ccc(C(C)C)c(N2C(=O)CS/C2=N\C(=O)Nc2ccc(-c3ncn(-c4ccc(OC(F)(F)F)cc4)n3)cc2C)c1` [Compound J130, (Z)-1-(3-(5-(Dipropylamino)-2-isopropylphenyl)-4-oxothiazolidin-2-ylidene)-3-(2-methyl-4-(1-(4-(trifluoromethoxy)phenyl)-1H-1,2,4-triazol-3-yl)phenyl)urea]: the pest or weed control at 50 µg/cm2 in assay [1] and in assay [2] was 50 to 100% throughout.

As for `Cc1ccc(C(C)C)c(N2C(=O)CS/C2=N\C(=O)Nc2ccc(-c3ncn(-c4cccc(C(F)(F)F)c4)n3)cc2C)c1` [Compound J131, (Z)-1-(3-(2-Isopropyl-5-methylphenyl)-4-oxothiazolidin-2-ylidene)-3-(2-methyl-4-(1-(3-(trifluoromethyl)phenyl)-1H-1,2,4-triazol-3-yl)phenyl)urea], the pest or weed control at 50 µg/cm2 in assay [1] and in assay [2] was 50 to 100% in each case.

As to `Cc1ccc(C(C)C)c(N2C(=O)CS/C2=N\C(=O)Nc2ccc(-c3ncn(-c4cccc(C(F)(F)F)c4)n3)cc2F)c1` [Compound J140, (Z)-1-(2-Fluoro-4-(1-(3-(trifluoromethyl)phenyl)-1H-1,2,4-triazol-3-yl)phenyl)-3-(3-(2-isopropyl-5-methylphenyl)-4-oxothiazolidin-2-ylidene)urea], the pest or weed control at 50 µg/cm2 in assay [1] and in assay [2] was 50 to 100% in each case.

Turning to `COc1ccc(-n2cnc(-c3ccc(NC(=O)/N=C4\SCC(=O)N4c4cc(C)ccc4C(C)C)c(F)c3)n2)cc1` [Compound J144, (Z)-1-(2-Fluoro-4-(1-(4-methoxyphenyl)-1H-1,2,4-triazol-3-yl)phenyl)-3-(3-(2-isopropyl-5-methylphenyl)-4-oxothiazolidin-2-ylidene)urea], the pest or weed control at 50 µg/cm2 in assay [1] and in assay [2] was 50 to 100% in each case.

`COc1ccc(-n2cnc(-c3ccc(NC(=O)/N=C4\SCC(=O)N4c4cc(C)ccc4OCCC(F)(F)F)c(F)c3)n2)cc1` [Compound J147, (Z)-1-(2-Fluoro-4-(1-(4-methoxyphenyl)-1H-1,2,4-triazol-3-yl)phenyl)-3-(3-(5-methyl-2-(3,3,3-trifluoropropoxy)phenyl)-4-oxothiazolidin-2-ylidene)urea]: the pest or weed control at 50 µg/cm2 in assay [1] and in assay [2] was 50 to 100% each time.

Take `Cc1ccc(-n2cnc(-c3ccc(NC(=O)/N=C4\SCC(=O)N4c4cc(N(C)C)ccc4C(C)C)c(F)c3)n2)cc1` [Compound J150, (Z)-1-(3-(5-(Dimethylamino)-2-isopropylphenyl)-4-oxothiazolidin-2-ylidene)-3-(2-fluoro-4-(1-(p-tolyl)-1H-1,2,4-triazol-3-yl)phenyl)urea]: the pest or weed control at 50 µg/cm2 in assay [1] and in assay [2] was 50 to 100% in each case.

As for `CC(C)c1ccc(N(C)C)cc1N1C(=O)CS/C1=N\C(=O)Nc1ccc(-c2ncn(-c3cccc(OC(F)(F)F)c3)n2)cc1F` [Compound J155, (Z)-1-(3-(5-(Dimethylamino)-2-isopropylphenyl)-4-oxothiazolidin-2-ylidene)-3-(2-fluoro-4-(1-(3-(trifluoromethoxy)phenyl)-1H-1,2,4-triazol-3-yl)phenyl)urea], the pest or weed control at 50 µg/cm2 in assay [1] and in assay [2] was 50 to 100% in each case.

For `CCc1cc(-c2ncn(-c3ccc(OC(F)(F)F)cc3)n2)ccc1NC(=O)/N=C1\SCC(=O)N1c1cc(NC)ccc1C(C)C` [Compound J157, (Z)-1-(2-Ethyl-4-(1-(4-(trifluoromethoxy)phenyl)-1H-1,2,4-triazol-3-yl)phenyl)-3-(3-(2-isopropyl-5-(methylamino)phenyl)-4-oxothiazolidin-2-ylidene)urea], the pest or weed control at 50 µg/cm2 in assay [1] and in assay [2] was 50 to 100% throughout.

For `CCNc1ccc(C(C)C)c(N2C(=O)CS/C2=N\C(=O)Nc2ccc(-c3ncn(-c4ccc(OC(F)(F)F)cc4)n3)cc2CC)c1` [Compound J158, (Z)-1-(2-Ethyl-4-(1-(4-(trifluoromethoxy)phenyl)-1H-1,2,4-triazol-3-yl)phenyl)-3-(3-(5-(ethylamino)-2-isopropylphenyl)-4-oxothiazolidin-2-ylidene)urea], the pest or weed control at 50 µg/cm2 in assay [1] and in assay [2] was 50 to 100% throughout.

In the case of `CCCNc1ccc(C(C)C)c(N2C(=O)CS/C2=N\C(=O)Nc2ccc(-c3ncn(-c4ccc(OC(F)(F)F)cc4)n3)cc2CC)c1` [Compound J159, (Z)-1-(2-Ethyl-4-(1-(4-(trifluoromethoxy)phenyl)-1H-1,2,4-triazol-3-yl)phenyl)-3-(3-(2-isopropyl-5-(propylamino)phenyl)-4-oxothiazolidin-2-ylidene)urea], the pest or weed control at 50 µg/cm2 in assay [1] and in assay [2] was 50 to 100% throughout.

For `CCc1cc(-c2ncn(-c3ccc(OC(F)(F)F)cc3)n2)ccc1NC(=O)/N=C1\SCC(=O)N1c1cc(N(CC)CC)ccc1C(C)C` [Compound J160, (Z)-1-(3-(5-(Diethylamino)-2-isopropylphenyl)-4-oxothiazolidin-2-ylidene)-3-(2-ethyl-4-(1-(4-(trifluoromethoxy)phenyl)-1H-1,2,4-triazol-3-yl)phenyl)urea], the pest or weed control at 50 µg/cm2 in assay [1] and in assay [2] was 50 to 100% each time.

For the compound `CCCN(CCC)c1ccc(C(C)C)c(N2C(=O)CS/C2=N\C(=O)Nc2ccc(-c3ncn(-c4ccc(OC(F)(F)F)cc4)n3)cc2CC)c1` [Compound J161, (Z)-1-(3-(5-(Dipropylamino)-2-isopropylphenyl)-4-oxothiazolidin-2-ylidene)-3-(2-ethyl-4-(1-(4-(trifluoromethoxy)phenyl)-1H-1,2,4-triazol-3-yl)phenyl)urea], the pest or weed control at 50 µg/cm2 lay within 0 to 50% in assay [1] and 50 to 100% in assay [2].

Regarding `CC(C)c1cc(F)c(N(C)C)cc1N1C(=O)CS/C1=N\C(=O)Nc1ccc(-c2ncn(-c3ccc(OC(F)(F)F)cc3)n2)cc1F` [Compound J162, (Z)-1-(3-(5-(Dimethylamino)-4-fluoro-2-isopropylphenyl)-4-oxothiazolidin-2-ylidene)-3-(2-fluoro-4-(1-(4-(trifluoromethoxy)phenyl)-1H-1,2,4-triazol-3-yl)phenyl)urea], the pest or weed control at 50 µg/cm2 in assay [1] and in assay [2] was 50 to 100% in each case.

On to `Cc1ccc([N+](=O)[O-])c(N2C(=O)CS/C2=N\C(=O)Nc2ccc(-c3ncn(-c4ccc(OC(F)(F)F)cc4)n3)cc2F)c1` [Compound J163, (Z)-1-(2-Fluoro-4-(1-(4-(trifluoromethoxy)phenyl)-1H-1,2,4-triazol-3-yl)phenyl)-3-(3-(5-methyl-2-nitrophenyl)-4-oxothiazolidin-2-ylidene)urea], for which the pest or weed control at 50 µg/cm2 in assay [1] and in assay [2] was 50 to 100% in each case.

With `CC(C)c1ccc(C(C)C)c(N2C(=O)CS/C2=N\C(=O)Nc2ccc(-c3ncn(-c4ccc(OC(F)(F)F)cc4)n3)cc2F)c1` [Compound J164, (Z)-1-(3-(2,5-Diisopropylphenyl)-4-oxothiazolidin-2-ylidene)-3-(2-fluoro-4-(1-(4-(trifluoromethoxy)phenyl)-1H-1,2,4-triazol-3-yl)phenyl)urea], the pest or weed control at 50 µg/cm2 in assay [1] and in assay [2] was 50 to 100% throughout.
